# How the values were obtained:
# [1] = target: PI3Kα (p110/p85) kinase (wild type, "WT") (Homo sapiens, UniProt P42336); experiment: PI3Kα (p110/p85) kinase ADP-Glo Assay; assay type: biochemical; conditions: 25 uM ATP
# Procedure: PI3Kα (p110/p85) kinase ADP-Glo Assay. Certain compounds disclosed herein were tested for inhibition of PI3Kα (p110/p85) kinase (wild type, “WT”) in assays based on the ADP-Glo™ Kinase Assay methodology. The assays were carried out in 384-well white plates in a reaction mixture containing PI3Kα (p110/p85) kinase, 25 µM ATP, 5.35 µg/mL PI(4,5)P2:PS Lipid Kinase Substrate and […] compound in buffer containing 50 mM HEPES pH7.5, 50 mM NaCl, 3 mM MgCl2, 0.0025% BSA and 2 mM DTT. PI3Kα (p110/p85) kinase was incubated with Lipid Kinase Substrate and compound for 30 minutes at room temperature and the reaction was initiated by the addition of ATP. After reaction at room temperature for 120 minutes, ADP-Glo™ reagents were added to terminate the kinase reaction and deplete the remaining ATP according to the manufacture's instruction (Promega Corporation). After incubation at room temperature for 1 hour, Kinase Detection Reagent (prepared by reconstituting the lyophilized Kinase Detection Substrate with Kinase Detection Buffer of the kit) was added to convert the ADP to ATP and to allow for the newly synthesized ATP to be measured using a luciferase/luciferin reaction. After incubation at room temperature for 0.5 hour, chemiluminescence signals were recorded on a PHERAstar FSX plate reader (BMG Labtech). The chemiluminescence generated in this assay correlates to the amount of ADP generated in the kinase assay, indicating kinase activity. […] The IC50 for each compound was derived from fitting the data to the four-parameter logistic equation by Dotmatics.
# [2] = target: PI3Kα (p110[H1047R]/p85) kinase (Homo sapiens, UniProt P42336, H1047R); experiment: PI3Kα (p110[H1047R]/p85) kinase ADP-Glo Assay; assay type: biochemical; conditions: 25 uM ATP; for selectivity: WT/H1047R: ADP-Glo Assay IC50 ratio
# Procedure: PI3Kα (p110[H1047R]/p85) kinase ADP-Glo Assay. Certain compounds disclosed herein were tested for inhibition of PI3Kα (p110[H1047R]/p85) kinase in assays based on the ADP-Glo™ Kinase Assay methodology. The assays were carried out in 384-well white plates in a reaction mixture containing PI3Kα (p110[H1047R]/p85) kinase, 25 µM ATP, 5.35 µg/ml PI(4,5)P2:PS Lipid Kinase Substrate and […] compound in buffer containing 50 mM HEPES pH7.5, 50 mM NaCl, 3 mM MgCl2, 0.0025% BSA and 2 mM DTT. PI3Kα (p110[H1047R]/p85) kinase was incubated with Lipid Kinase Substrate and compound for 30 minutes at room temperature and the reaction was initiated by the addition of ATP.
# After reaction at room temperature for 120 minutes, ADP-Glo™ reagents were added to terminate the kinase reaction and deplete the remaining ATP according to the manufacture's instruction (Promega Corporation). After incubation at room temperature for 1 hour, Kinase Detection Reagent (prepared by reconstituting the lyophilized Kinase Detection Substrate with Kinase Detection Buffer of the kit) was added to convert the ADP to ATP and to allow for the newly synthesized ATP to be measured using a luciferase/luciferin reaction. After incubation at room temperature for 0.5 hour, chemiluminescence signals were recorded on a PHERAstar FSX plate reader (BMG Labtech). The chemiluminescence generated in this assay correlates to the amount of ADP generated in the kinase assay, indicating kinase activity. […] The IC50 for each compound was derived from fitting the data to the four-parameter logistic equation by Dotmatics.
# [3] = test system: PI3Kα H1047R mutated cell line T-47D; experiment: Phospho-AKT (Ser473) Inhibition Assay (HTRF), T-47D; assay type: cell-based; conditions: for IC50: Homo sapiens, T47D, T-47D, 1 hour treatment, read-out: p-AKT Inhibition assay (S473) IC50 T-47D; for Selectivity: SK-BR-3/T-47D (p-AKT): p-AKT (S473) IC50 ratio
# Procedure: Cell Culture Maintenance. The T-47D (ATCC, HTB-133) cell line was obtained from the American Type Culture Collection. Cells were maintained in RPMI1640 medium (Gibco, REF #22400105) supplemented with 10% Fetal Bovine Serum (Gibco, REF #10091148). Cultures were maintained in a humidified incubator at 37° C. under 5% CO2/95% air.
# (§1) Phospho-AKT Inhibition Assay. HTRF Phospho-AKT (Ser473) detection kit (Cisbio, REF #64AKSPEH) was used in phosphor-AKT inhibition assay. For compound screening, PI3Kα H1047R mutated cell line T-47D and WT cell line SK-BR-3 cells were seeded at a density of 3×10^4 cells per well in 96 well plate (Costar, REF #3599) in 95 μL of assay medium (MEM medium (Gibco, REF #12561-056) with 1×NEAA (Gibco, REF #11140-050), 1 mM sodium pyruvate (Gibco, REF #11360-070), and 1 g/ml human insulin (Topscience, REF #T8221)), overnight. Compounds dissolved in 10 mM stock solutions in DMSO were serially diluted 1:3 in DMSO to generate an 11-point dilution series and plated using an INTEGRA ASSIST PLUS pipetting robot. A 20× intermediate compound dilution plate in RPMI1640 medium (200 M starting compound concentration in 2% DMSO) was then prepared. Five μL of intermediate serially diluted compounds were added to the cell plate to final concentrations ranging from […] to 0.1 nM in 0.1% DMSO. 0.1% DMSO alone was used to establish the maximum signal and GDC0077 at final concentration of 10 μM was used as a reference compound for minimum signal. After 1 hour treatment, removed medium and added 50 μL of supplemented lysis buffer (1×) immediately. Incubated for at least 30 minutes at room temperature under shaking. Transferred 16 μL of cell lysate from the 96-well cell-culture plate to a 384-white detection plate (PerkinElmer, Optiplate 384, 6007299). Added 4 μL of premixed antibody solutions prepared in the detection buffer. Incubated 4 hours at room temperature in dark. The plates were read on PHERAstar FSX Microplate reader (BMG LABTECH, Inc.) using standard HTRF settings.
# (§2) Relative IC50 values were determined using luminescence units by calculating percent inhibition with respect to the in-plate “MIN” (GDC0077 reference control) and “MAX” (DMSO) controls. The data were analyzed using a 4-parameter nonlinear logistic equation (four-parameter logistic concentration-response curve): Y=bottom+[(top−bottom)/1+(X/IC50) slope] • where Y=% inhibition, X=concentration of inhibitor, bottom=minimum value of y attained by curve-fit, top=maximum value of y attained by curve-fit and slope=steepness of curve at the IC50.
# WT cell line SK-BR-3 = experiment: Phospho-AKT (Ser473) Inhibition Assay (HTRF), SK-BR-3; assay type: cell-based; conditions: Homo sapiens; SK-BR-3, 1 hour treatment; read-out: p-AKT Inhibition assay (S473) IC50 SK-BR-3
# Procedure: The SK-BR-3 (ATCC, HTB-30) cell line was obtained from the American Type Culture Collection. Cells were maintained in McCoy' 5A medium (Gibco, REF #16600108) supplemented with 10% Fetal Bovine Serum. Cultures were maintained in a humidified incubator at 37° C. under 5% CO2/95% air.
# as §1, §2
# PI3Kα (p110/p85) kinase (wild type, "WT"), sequence (P42336 whole entry): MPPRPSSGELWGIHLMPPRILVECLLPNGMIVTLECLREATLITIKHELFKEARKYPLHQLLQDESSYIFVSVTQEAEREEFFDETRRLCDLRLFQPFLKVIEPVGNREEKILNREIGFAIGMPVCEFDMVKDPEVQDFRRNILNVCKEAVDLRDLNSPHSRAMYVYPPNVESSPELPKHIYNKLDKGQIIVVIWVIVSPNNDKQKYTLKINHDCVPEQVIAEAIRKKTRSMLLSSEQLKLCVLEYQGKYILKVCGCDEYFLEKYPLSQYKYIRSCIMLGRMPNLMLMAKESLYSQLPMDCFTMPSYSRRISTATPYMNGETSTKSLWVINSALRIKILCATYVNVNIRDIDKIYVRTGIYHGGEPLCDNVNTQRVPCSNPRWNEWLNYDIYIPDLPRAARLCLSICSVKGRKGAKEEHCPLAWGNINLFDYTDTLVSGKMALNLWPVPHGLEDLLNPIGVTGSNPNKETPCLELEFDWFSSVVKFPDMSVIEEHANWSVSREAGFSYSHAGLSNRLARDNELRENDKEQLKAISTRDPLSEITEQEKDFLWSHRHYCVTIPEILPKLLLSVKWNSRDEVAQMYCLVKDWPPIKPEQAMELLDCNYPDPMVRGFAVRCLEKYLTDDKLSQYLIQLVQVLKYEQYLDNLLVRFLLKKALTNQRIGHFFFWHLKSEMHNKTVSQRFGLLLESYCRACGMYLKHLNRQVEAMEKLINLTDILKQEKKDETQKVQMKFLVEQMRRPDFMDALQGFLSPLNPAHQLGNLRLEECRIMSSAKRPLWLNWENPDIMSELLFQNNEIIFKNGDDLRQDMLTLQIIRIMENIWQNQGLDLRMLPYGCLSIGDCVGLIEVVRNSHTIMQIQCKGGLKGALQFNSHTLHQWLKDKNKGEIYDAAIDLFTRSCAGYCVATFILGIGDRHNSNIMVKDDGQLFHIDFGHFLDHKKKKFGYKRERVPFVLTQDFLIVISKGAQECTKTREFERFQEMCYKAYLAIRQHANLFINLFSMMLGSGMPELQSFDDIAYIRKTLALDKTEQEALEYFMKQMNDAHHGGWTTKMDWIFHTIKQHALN
# PI3Kα (p110/p85) kinase (wild type, "WT"), sequence (P27986 whole entry partner): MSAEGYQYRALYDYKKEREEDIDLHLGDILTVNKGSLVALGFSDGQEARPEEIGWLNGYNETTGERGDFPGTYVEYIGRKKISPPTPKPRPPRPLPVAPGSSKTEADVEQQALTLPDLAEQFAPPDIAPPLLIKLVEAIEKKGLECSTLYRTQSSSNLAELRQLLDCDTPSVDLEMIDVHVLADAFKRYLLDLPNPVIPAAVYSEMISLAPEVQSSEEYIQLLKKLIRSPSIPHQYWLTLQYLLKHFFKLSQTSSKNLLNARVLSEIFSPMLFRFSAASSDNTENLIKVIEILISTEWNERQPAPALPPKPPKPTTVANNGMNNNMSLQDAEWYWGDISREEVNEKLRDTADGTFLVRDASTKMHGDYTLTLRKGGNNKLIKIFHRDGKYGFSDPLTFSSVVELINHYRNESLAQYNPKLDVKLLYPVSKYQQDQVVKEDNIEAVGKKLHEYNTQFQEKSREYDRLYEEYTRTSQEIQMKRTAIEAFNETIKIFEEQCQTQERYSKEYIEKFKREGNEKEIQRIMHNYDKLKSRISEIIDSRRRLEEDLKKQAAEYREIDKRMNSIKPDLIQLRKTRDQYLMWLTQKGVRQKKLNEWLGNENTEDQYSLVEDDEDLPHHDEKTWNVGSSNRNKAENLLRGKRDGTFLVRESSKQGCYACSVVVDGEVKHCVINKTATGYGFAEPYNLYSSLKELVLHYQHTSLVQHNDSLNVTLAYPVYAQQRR
# PI3Kα (p110[H1047R]/p85) kinase, sequence (P42336 whole entry H1047R): as the sequence (P42336 whole entry) above, with H1047R counted along it
# PI3Kα (p110[H1047R]/p85) kinase, sequence (P27986 whole entry partner): as the sequence (P27986 whole entry partner) above
SMILES,IC50 [1] [µM],IC50 [2] [nM],selectivity: WT/H1047R [2],IC50 [3] [nM],IC50 (WT cell line SK-BR-3) [µM],Selectivity: SK-BR-3/T-47D (p-AKT) [3]
"CC#Cc1cc2c(C(C)Nc3ccccc3C(=O)O)cc(C)cc2c(=O)n1C (centres unmarked) [Example 27, 2-((1-(2,7-dimethyl-1-oxo-3-(prop-1-yn-1-yl)-1,2-dihydroisoquinolin-5-yl)ethyl)amino)benzoic acid]",60.2,762,79,245,> 10,>21
"Cc1cc([C@H](C)Nc2ccccc2C(=O)O)c2cc(-c3ccc(-c4cnn(C)c4)cc3)n(C)c(=O)c2c1 [Example 41, (S)-2-((1-(2,7-dimethyl-3-(4-(1-methyl-1H-pyrazol-4-yl)phenyl)-1-oxo-1,2-dihydroisoquinolin-5-yl)ethyl)amino)benzoic acid]",61,7180,8.5,> 10000,3.23,
"Cc1cc(C(C)Nc2ccccc2C(=O)O)c2cc(C#CC3CCCCC3)n(C)c(=O)c2c1 (centres unmarked) [Example 28, 2-((1-(3-(cyclohexylethynyl)-2,7-dimethyl-1-oxo-1,2-dihydroisoquinolin-5-yl)ethyl)amino)benzoic acid]",> 100,505,>198,472,6.43,17

# The next molecules have a lower IC50 [1] than those just listed; values first:
IC50 [1] [µM],IC50 [2] [nM],selectivity: WT/H1047R [2],IC50 [3] [nM],IC50 (WT cell line SK-BR-3) [µM],SMILES,Selectivity: SK-BR-3/T-47D (p-AKT) [3]
55.5,485,114.5,6750,> 10,"Cc1cc(C(C)Nc2c(C(=O)O)nn3c2CCC3)c2cc(-c3ccccc3)n(C)c(=O)c2c1 (centres unmarked) [Example 83, 3-((1-(2,7-dimethyl-1-oxo-3-phenyl-1,2-dihydroisoquinolin-5-yl)ethyl)amino)-5,6-dihydro-4H-pyrrolo[1,2-b]pyrazole-2-carboxylic acid]",>1.48
6.25,158,40,50,> 10,"Cc1cc(C(C)Nc2ccccc2C(=O)O)c2cc(-c3ccccc3)[nH]c(=O)c2c1 (centres unmarked) [Example 26, 2-((1-(7-methyl-1-oxo-3-phenyl-1,2-dihydroisoquinolin-5-yl)ethyl)amino)benzoic acid]",>198

# Source: patent US20260125346A1, “Isoquinolinone Derivatives and 4H-Quinolizinone Derivatives and Pharmaceutical Compositions Thereof for the Treatment of Disease” (BeOne Medicines I GmbH, priority 2023, published 2026)
